The source of these data is PubChem BioAssay AID1259407 (Chemical Carcinogenesis Research Information System (CCRIS), 2018).

Activity calls are given as the source filed them. No rule for the calls is given here.

For the data set, the system named is CCRIS mutagenicity, Ames/micronucleus/aberration tests. Put plainly: CCRIS mutagenicity studies.
[1] abbreviates: Test System: AMES SALMONELLA TYPHIMURIUM, Strain/Indicator: TA98, Metabolic Activation: NONE, Method: STANDARD PLATE.
Setting [2] is: Test System: AMES SALMONELLA TYPHIMURIUM, Strain/Indicator: TA100, Metabolic Activation: NONE, Method: STANDARD PLATE.
The mark [3] stands for this setting: Test System: AMES SALMONELLA TYPHIMURIUM, Strain/Indicator: TA102, Metabolic Activation: NONE, Method: PREINCUBATION

Consider `Cc1ccc(C)c2c1[nH]c1ccccc12`, for which the mutagenic call was “inactive; negative” under setting [1]; “active; positive” (Test System: AMES SALMONELLA TYPHIMURIUM, Strain/Indicator: TA98, Metabolic Activation: RAT LIVER S-9, AROCLOR 1254, Method: STANDARD PLATE); “inactive; negative” under setting [2]; “inactive; negative” (Test System: AMES SALMONELLA TYPHIMURIUM, Strain/Indicator: TA100, Metabolic Activation: RAT LIVER S-9, AROCLOR 1254, Method: STANDARD PLATE).
In the case of `CC1(C)[C@@H](O[C@H]2O[C@H](C(=O)O)[C@@H](O)[C@H](O)[C@H]2O[C@@H]2O[C@H](C(=O)O)[C@@H](O)[C@H](O)[C@H]2O)CC[C@]2(C)[C@H]3C(=O)C=C4[C@@H]5C[C@@](C)(C(=O)O)CC[C@]5(C)CC[C@@]4(C)[C@]3(C)CC[C@@H]12`, the mutagenic call by setting is: (End Point: IN VIVO MICRONUCLEUS, Test System: BONE MARROW POLYCHROMATIC ERYTHROCYTES, Species: MOUSE, Strain/Sex: DDY/MALE, Route: IP) “inactive; negative”; (Test System: AMES SALMONELLA TYPHIMURIUM, Strain/Indicator: TA97A, Metabolic Activation: NONE, Method: PREINCUBATION) “inactive; negative”; (Test System: AMES SALMONELLA TYPHIMURIUM, Strain/Indicator: TA97A, Metabolic Activation: RAT, LIVER, S-9, AROCLOR 1254, Method: PREINCUBATION) “inactive; negative”; under setting [1], “inactive; negative”; (Test System: AMES SALMONELLA TYPHIMURIUM, Strain/Indicator: TA98, Metabolic Activation: RAT, LIVER, S-9, AROCLOR 1254, Method: STANDARD PLATE) “inactive; negative”; under setting [2], “inactive; negative”. In addition, the mutagenic call is “inactive; negative” (Test System: AMES SALMONELLA TYPHIMURIUM, Strain/Indicator: TA100, Metabolic Activation: RAT, LIVER, S-9, AROCLOR 1254, Method: STANDARD PLATE); “inactive; negative” under setting [3]; “inactive; negative” (Test System: AMES SALMONELLA TYPHIMURIUM, Strain/Indicator: TA102, Metabolic Activation: RAT, LIVER, S-9, AROCLOR 1254, Method: PREINCUBATION); “inactive; negative” (Test System: AMES SALMONELLA TYPHIMURIUM, Strain/Indicator: TA1535, Metabolic Activation: NONE, Method: STANDARD PLATE); “inactive; negative” (Test System: AMES SALMONELLA TYPHIMURIUM, Strain/Indicator: TA1535, Metabolic Activation: RAT, LIVER, S-9, AROCLOR 1254, Method: STANDARD PLATE); “inactive; negative” (Test System: AMES SALMONELLA TYPHIMURIUM, Strain/Indicator: TA1537, Metabolic Activation: NONE, Method: STANDARD PLATE). The mutagenic call is, setting by setting: (Test System: AMES SALMONELLA TYPHIMURIUM, Strain/Indicator: TA1537, Metabolic Activation: RAT, LIVER, S-9, AROCLOR 1254, Method: STANDARD PLATE) “inactive; negative”; (Test System: AMES SALMONELLA TYPHIMURIUM, Strain/Indicator: TA1538, Metabolic Activation: NONE, Method: STANDARD PLATE) “inactive; negative”; (Test System: AMES SALMONELLA TYPHIMURIUM, Strain/Indicator: TA1538, Metabolic Activation: RAT, LIVER, S-9, AROCLOR 1254, Method: STANDARD PLATE) “inactive; negative”; (Test System: E. COLI, Strain/Indicator: WP2, Metabolic Activation: NONE, Method: STANDARD PLATE) “inactive; negative”; (Test System: E. COLI, Strain/Indicator: WP2, Metabolic Activation: RAT, LIVER, S-9, AROCLOR 1254, Method: STANDARD PLATE) “inactive; negative”.
Regarding `CC1=CC(=O)C=C(C)C1=O`, the mutagenic call is, setting by setting: (Test System: AMES SALMONELLA TYPHIMURIUM, Strain/Indicator: TA98, Metabolic Activation: NONE, Method: PREINCUBATION) “inactive; negative”; (Test System: AMES SALMONELLA TYPHIMURIUM, Strain/Indicator: TA98, Metabolic Activation: RAT, LIVER, S-9, PHENOBARBITAL AND 5,6-BENZOFLAVONE, Method: PREINCUBATION) “inactive; negative”; (Test System: AMES SALMONELLA TYPHIMURIUM, Strain/Indicator: TA100, Metabolic Activation: NONE, Method: PREINCUBATION) “inactive; negative”; (Test System: AMES SALMONELLA TYPHIMURIUM, Strain/Indicator: TA100, Metabolic Activation: RAT, LIVER, S-9, PHENOBARBITAL AND 5,6-BENZOFLAVONE, Method: PREINCUBATION) “inactive; negative”; under setting [3], “inactive; negative”; (Test System: AMES SALMONELLA TYPHIMURIUM, Strain/Indicator: TA102, Metabolic Activation: RAT, LIVER, S-9, PHENOBARBITAL AND 5,6-BENZOFLAVONE, Method: PREINCUBATION) “inactive; negative”. The mutagenic call runs as follows: (Test System: AMES SALMONELLA TYPHIMURIUM, Strain/Indicator: TA104, Metabolic Activation: NONE, Method: PREINCUBATION) “inactive; negative”; (Test System: AMES SALMONELLA TYPHIMURIUM, Strain/Indicator: TA104, Metabolic Activation: RAT, LIVER, S-9, PHENOBARBITAL AND 5,6-BENZOFLAVONE, Method: PREINCUBATION) “inactive; negative”; (Test System: AMES SALMONELLA TYPHIMURIUM, Strain/Indicator: TA2637, Metabolic Activation: NONE, Method: PREINCUBATION) “active; positive”; (Test System: AMES SALMONELLA TYPHIMURIUM, Strain/Indicator: TA2637, Metabolic Activation: RAT, LIVER, S-9, PHENOBARBITAL AND 5,6-BENZOFLAVONE, Method: PREINCUBATION) “inactive; negative”.
